According to patent publication US20100068299A1 (priority 2003, published 2010):

Test: Reversal of formed copper phosphite precipitate by added agent (Example 1)
Assay type: physicochemical
Settings: agent added at final concentration of 10 mM; 0.6 g/l Cu(OH)2, 14.4 g/l KH2PO3, 1 g/l K2CO3, pH 5.5

## O=C([O-])CN(CCN(CC(=O)[O-])CC(=O)O)CC(=O)O.[Na+].[Na+] [disodium EDTA]
  effect on formed copper phosphite precipitate: immediately disappeared
